Laboratory results as given in US11306079B2, “3-(5-amino-pyrazin-2-yl)-benzenesulfonamide derivatives and related compounds as PI3K-gamma kinase inhibitors” (Incyte Corporation, priority 2017, dated 2022).

Key:
[1] = target: PI3Kγ (p110γ) Recombinant Human Protein (Homo sapiens (Human), UniProt P48736); assay: PI3K-γ Scintillation Proximity Assay; format: biochemical; conditions: 20 μM PIP2, 2 μM ATP, 13 nM PI3Kγ, 120 min, room temperature
How it was run: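 Recombinant human p110γ (13 nM) phosphorylated 20 μM PIP2 with 2 μM ATP plus [γ-33P]ATP in 20 mM MOPS pH 6.7, 10 mM MgCl2, 5 mM DTT, 0.03% CHAPS, 2% DMSO, 120 min at room temperature. Radiolabelled product was captured on WGA SPA beads and counted. IC50 came from curves of percent solvent-control activity.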

[2] = target: PI3Kδ (p110δ/p85α) Recombinant Human Protein (Homo sapiens (Human), UniProt O00329); assay: PI3Kδ Scintillation Proximity Assay; format: biochemical; conditions: 20 μM PIP2, 2 μM ATP, 3.4 nM PI3Kδ, 120 min, room temperature
PI3Kδ (p110δ/p85α) Recombinant Human Protein, sequence (O00329 whole entry): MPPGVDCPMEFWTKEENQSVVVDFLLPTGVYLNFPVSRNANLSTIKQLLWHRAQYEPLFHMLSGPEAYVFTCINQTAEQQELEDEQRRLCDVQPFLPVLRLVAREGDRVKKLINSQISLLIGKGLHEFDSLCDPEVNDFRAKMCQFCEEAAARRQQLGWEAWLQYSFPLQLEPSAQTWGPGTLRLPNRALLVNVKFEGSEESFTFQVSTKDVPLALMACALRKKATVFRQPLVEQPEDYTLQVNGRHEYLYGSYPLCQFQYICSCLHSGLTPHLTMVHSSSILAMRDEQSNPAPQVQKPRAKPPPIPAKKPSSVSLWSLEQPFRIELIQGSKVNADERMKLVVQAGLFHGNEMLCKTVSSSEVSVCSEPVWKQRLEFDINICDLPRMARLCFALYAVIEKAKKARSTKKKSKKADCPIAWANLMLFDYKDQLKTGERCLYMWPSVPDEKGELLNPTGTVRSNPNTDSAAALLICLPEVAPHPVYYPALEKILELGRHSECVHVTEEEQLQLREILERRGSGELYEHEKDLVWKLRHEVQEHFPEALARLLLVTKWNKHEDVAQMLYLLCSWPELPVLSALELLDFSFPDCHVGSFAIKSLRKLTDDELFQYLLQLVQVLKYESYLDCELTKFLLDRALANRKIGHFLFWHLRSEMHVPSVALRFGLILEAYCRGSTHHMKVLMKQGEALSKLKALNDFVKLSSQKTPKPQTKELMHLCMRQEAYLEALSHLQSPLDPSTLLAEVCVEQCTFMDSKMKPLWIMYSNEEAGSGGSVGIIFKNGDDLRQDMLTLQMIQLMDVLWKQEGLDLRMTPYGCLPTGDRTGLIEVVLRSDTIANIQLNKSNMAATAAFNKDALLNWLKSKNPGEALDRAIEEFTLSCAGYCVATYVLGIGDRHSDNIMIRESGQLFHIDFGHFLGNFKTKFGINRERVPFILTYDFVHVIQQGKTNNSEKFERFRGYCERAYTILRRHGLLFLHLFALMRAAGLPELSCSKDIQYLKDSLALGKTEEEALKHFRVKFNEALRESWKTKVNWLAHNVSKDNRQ
PI3Kδ (p110δ/p85α) Recombinant Human Protein, sequence (P27986 whole entry partner): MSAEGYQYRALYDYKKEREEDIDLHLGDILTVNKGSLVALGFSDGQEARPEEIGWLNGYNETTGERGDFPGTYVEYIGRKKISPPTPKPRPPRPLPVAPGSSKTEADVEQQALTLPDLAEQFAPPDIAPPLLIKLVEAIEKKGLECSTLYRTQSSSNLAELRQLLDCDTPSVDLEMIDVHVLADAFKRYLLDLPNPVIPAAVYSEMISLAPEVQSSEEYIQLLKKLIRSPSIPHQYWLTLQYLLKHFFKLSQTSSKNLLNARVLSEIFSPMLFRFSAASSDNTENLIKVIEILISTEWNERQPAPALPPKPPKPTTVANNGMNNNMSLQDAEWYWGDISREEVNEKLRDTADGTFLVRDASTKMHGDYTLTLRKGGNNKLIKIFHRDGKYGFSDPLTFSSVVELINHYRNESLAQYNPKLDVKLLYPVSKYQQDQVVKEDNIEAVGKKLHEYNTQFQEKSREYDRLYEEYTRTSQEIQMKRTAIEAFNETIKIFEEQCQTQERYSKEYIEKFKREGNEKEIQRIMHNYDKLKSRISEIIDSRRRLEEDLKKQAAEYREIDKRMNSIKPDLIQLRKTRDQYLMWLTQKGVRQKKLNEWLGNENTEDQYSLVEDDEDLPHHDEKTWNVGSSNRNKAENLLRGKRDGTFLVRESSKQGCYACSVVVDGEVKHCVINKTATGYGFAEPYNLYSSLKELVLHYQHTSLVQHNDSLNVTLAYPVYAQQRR
How it was run: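 Kinase reaction run at room temperature in 20 mM MOPS pH 6.7, 10 mM MgCl2, 5 mM DTT, 0.03% CHAPS with 20 μM PIP2, 2 μM ATP plus [γ-33P]ATP, 3.4 nM enzyme, 2% DMSO; 120 min. Quenched with WGA SPA beads/EDTA, counted by scintillation; IC50 from % solvent-control activity vs log concentration.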

[3] = system: Phosphorylated Ribosomal Protein S6 (RPS6) in THP-1 cells; assay: THP-1 RPS6 ELISA Assay; format: cell-based; conditions: Homo sapiens; serum starved THP-1 cells, 2 hours with compound, 10 nM MCP-1 for 15 minutes, Phospho-RPS6 ELISA; read-out: PI3Kγ_THP1_RPS6_ELISA IC50
How it was run: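 Serum-starved THP-1 cells (2×10^5/well, RPMI) preincubated with compound 2 h at 37° C, then stimulated with 10 nM MCP-1 for 15 min. Lysates assayed by phospho-RPS6 ELISA, absorbance 450 nm (540 nm correction); IC50 from percent inhibition versus log concentration.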

PI3Kγ (p110γ) Recombinant Human Protein, sequence (P48736 whole entry): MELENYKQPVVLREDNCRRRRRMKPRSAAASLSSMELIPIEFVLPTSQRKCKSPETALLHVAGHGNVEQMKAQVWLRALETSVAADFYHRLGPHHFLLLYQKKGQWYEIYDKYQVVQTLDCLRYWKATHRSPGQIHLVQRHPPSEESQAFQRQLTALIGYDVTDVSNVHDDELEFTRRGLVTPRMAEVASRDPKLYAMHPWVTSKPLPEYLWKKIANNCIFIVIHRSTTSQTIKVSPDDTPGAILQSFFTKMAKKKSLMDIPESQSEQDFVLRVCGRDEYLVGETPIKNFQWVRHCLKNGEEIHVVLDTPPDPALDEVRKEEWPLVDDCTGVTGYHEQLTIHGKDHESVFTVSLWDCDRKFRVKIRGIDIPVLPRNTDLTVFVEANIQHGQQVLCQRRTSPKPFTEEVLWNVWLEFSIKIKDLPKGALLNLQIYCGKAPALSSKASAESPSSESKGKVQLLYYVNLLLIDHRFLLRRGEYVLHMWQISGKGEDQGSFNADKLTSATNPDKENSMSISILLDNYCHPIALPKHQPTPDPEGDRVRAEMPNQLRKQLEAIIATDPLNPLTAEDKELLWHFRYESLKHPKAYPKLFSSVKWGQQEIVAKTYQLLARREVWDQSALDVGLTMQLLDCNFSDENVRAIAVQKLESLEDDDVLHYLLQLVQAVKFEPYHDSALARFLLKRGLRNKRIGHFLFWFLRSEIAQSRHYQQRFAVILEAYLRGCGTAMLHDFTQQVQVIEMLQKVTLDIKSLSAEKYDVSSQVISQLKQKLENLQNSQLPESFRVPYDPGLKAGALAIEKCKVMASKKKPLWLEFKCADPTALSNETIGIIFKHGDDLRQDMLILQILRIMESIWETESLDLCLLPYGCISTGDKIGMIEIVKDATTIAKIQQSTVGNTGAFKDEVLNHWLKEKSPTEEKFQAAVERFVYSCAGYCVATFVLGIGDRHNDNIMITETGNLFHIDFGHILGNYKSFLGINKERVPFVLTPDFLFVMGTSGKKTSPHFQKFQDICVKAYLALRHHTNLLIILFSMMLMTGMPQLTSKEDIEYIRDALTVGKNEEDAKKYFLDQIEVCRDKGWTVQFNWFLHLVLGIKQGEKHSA

Row | Structure (SMILES) | IC50 [1] [nM] | IC50 [2] [nM] | IC50 [3] [nM]
1 | [2H]C([2H])([2H])c1ccc(S(=O)(=O)NC23CCN(CC2)C3)cc1-c1cnc(N)c(-c2ncn(C([2H])([2H])[2H])n2)n1 [Example 92, 3-(5-amino-6-(1-(methyl-d3)-1H-1,2,4-triazol-3-yl)pyrazin-2-yl)-N-(1-azabicyclo[2.2.1]heptan-4-yl)-4-(methyl-d3)benzenesulfonamide] | ≤ 100 | ≤ 100 | ≤ 500
2 | Cc1ccc(S(=O)(=O)NC23CCN(CC2)C3)cc1-c1cnc(N)c(-n2cccn2)n1 [Example 93, 3-(5-amino-6-(1H-pyrazol-1-yl)pyrazin-2-yl)-N-(1-azabicyclo[2.2.1]heptan-4-yl)-4-methylbenzenesulfonamide] | ≤ 100 | ≤ 100 | ≤ 100
3 | [2H]C([2H])([2H])c1ccc(S(=O)(=O)NC23CCN(CC2)C3)cc1-c1cnc(N)c(-c2cnco2)n1 [Example 94, 3-(5-amino-6-(oxazol-5-yl)pyrazin-2-yl)-N-(1-azabicyclo[2.2.1]heptan-4-yl)-4-(methyl-d3)benzenesulfonamide] | ≤ 100 | ≤ 500 | ≤ 100
4 | [2H]C([2H])([2H])c1ccc(S(=O)(=O)NC23CCN(CC2)C3)cc1-c1cnc(N)c(-c2ccncn2)n1 [Example 95, 3-(5-amino-6-(pyrimidin-4-yl)pyrazin-2-yl)-N-(1-azabicyclo[2.2.1]heptan-4-yl)-4-(methyl-d3)benzenesulfonamide] | ≤ 100 | ≤ 100 | ≤ 100
